The term IC50 denotes the concentration that gives 50% inhibition.

Among the data in patent US6093732A, “4-hydroxyquinoline-3-carboxamides and hydrazides as antiviral agents” (Pharmacia & Upjohn Company, priority 1998, dated 2000) are IC50 values, retold here.

SMILES strings stand for the structures. Where a name gives a salt, the structure may show the parent alone. Some results are limits rather than exact numbers.

T1 sequence (P08546 whole entry): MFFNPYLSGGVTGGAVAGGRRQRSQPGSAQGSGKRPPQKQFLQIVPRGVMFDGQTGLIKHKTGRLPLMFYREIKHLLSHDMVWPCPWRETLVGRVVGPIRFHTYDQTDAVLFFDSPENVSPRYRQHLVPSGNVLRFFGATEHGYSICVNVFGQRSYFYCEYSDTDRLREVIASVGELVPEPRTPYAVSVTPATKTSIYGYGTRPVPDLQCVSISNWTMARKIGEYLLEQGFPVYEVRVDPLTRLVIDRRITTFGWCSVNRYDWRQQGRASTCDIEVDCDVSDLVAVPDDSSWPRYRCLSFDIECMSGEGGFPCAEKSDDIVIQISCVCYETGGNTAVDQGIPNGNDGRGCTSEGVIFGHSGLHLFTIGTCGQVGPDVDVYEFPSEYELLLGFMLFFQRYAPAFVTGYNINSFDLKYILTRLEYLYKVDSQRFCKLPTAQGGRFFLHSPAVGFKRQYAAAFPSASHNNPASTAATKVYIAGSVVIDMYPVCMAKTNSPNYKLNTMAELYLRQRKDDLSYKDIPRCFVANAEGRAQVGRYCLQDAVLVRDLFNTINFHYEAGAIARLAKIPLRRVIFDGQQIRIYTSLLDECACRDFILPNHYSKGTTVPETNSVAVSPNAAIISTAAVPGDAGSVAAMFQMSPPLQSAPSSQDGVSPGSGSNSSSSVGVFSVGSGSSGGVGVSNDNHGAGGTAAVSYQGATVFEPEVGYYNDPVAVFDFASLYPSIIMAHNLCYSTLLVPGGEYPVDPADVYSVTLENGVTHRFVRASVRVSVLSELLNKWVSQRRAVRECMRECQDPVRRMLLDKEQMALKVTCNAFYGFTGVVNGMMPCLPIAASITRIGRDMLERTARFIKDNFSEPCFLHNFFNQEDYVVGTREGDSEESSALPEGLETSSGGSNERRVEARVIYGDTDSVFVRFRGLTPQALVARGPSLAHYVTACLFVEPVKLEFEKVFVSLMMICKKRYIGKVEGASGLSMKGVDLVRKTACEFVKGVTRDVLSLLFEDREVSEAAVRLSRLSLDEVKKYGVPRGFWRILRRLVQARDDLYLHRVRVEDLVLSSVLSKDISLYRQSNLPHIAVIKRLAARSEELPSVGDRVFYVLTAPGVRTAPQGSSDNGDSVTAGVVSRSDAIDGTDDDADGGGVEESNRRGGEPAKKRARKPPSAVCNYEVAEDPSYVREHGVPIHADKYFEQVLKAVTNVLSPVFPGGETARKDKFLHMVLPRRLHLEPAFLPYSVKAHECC

This experiment concerns the target T1, HCMV polymerase (Human cytomegalovirus, UniProt P08546).
T1 construct: made in house; host or cells: recombinant baculovirus-infected SF-9 cells
Briefly: HCMV polymerase scintillation proximity assay (SPA), modified version. Type of experiment: biochemical. Conditions: CMV polymerase; Table 1; modified assay with 4.5 mM DTT, compounds in 100% DMSO; read-out: Antiviral Selective Polymerase IC50 Values, CMV. The method, then:
The HCMV polymerase assay is performed using a scintillation proximity assay (SPA) as described in several references, such as N. D. Cook, et al., Pharmaceutical Manufacturing International, pages 49-53 (1992); K. Takeuchi, Laboratory Practice, September issue (1992); U.S. Pat. No. 4,568,649 (1986); which are incorporated by reference herein. Reactions are performed in 96-well plates. The assay is conducted in 100 μl volume with 5.4 mM HEPES (pH 7.5), 11.7 mM KCl, 4.5 mM MgCl2, 0.36 mg/ml BSA, and 90 nM ^3 H-dTTP. Assays are run with and without CHAPS, (3-[(3-Cholamidopropyl)-dimethylammonio]-1-propane-sulfonate) at a final concentration of 2 mM. HCMV polymerase is diluted in enzyme dilution buffer containing 50% glycerol, 250 mM NaCl, 10 mM HEPES (pH 7.5), 100 μg/ml BSA, and 0.01% sodium azide. The HCMV polymerase, which is expressed in recombinant baculovirus-infected SF-9 cells and purified according to literature procedures, is added at 10% (or 10 μl) of the final reaction volume, i.e., 100 μl. Compounds are diluted in 50% DMSO and 10 μl are added to each well. Control wells contain an equivalent concentration of DMSO. Unless noted otherwise, reactions are initiated via the addition of 6 nM biotinylated poly(dA)-oligo(dT) template/primer to reaction mixtures containing the enzyme, substrate, and compounds of interest. Plates are incubated in a 25° C. or 37° C. H2 O bath and terminated via the addition of 40 μl/reaction of 0.5 M EDTA (pH 8) per well. Reactions are terminated within the time-frame during which substrate incorporation is linear and varied depending upon the enzyme and conditions used, i.e., 30 min. for HCMV polymerase. Ten μl of streptavidin-SPA beads (20 mg/ml in PBS/10% glycerol) are added following termination of the reaction. Plates are incubated 10 min. at 37° C., then equilibrated to room temperature, and counted on a Packard Topcount. Linear regressions are performed and IC50 's are calculated using computer software.
A modified version of the above HCMV polymerase assay is performed as described above, but with the following changes: Compounds are diluted in 100% DMSO until final dilution into assay buffer. In the previous assay, compounds are diluted in 50% DMSO. 4.5 mM dithiotherotol (DTT) is added to the polymerase buffer. […] Other viral polymerase assays are performed using procedures similar to those described above.
For orientation: In a scintillation proximity assay essentially only radioactivity close to the scintillant gives light.
For `O=C(NCc1ccc(Cl)cc1)c1cnc2c(F)cc(C#CCCO)cc2c1O` [Example 94, N-(4-Chlorobenzyl)-8-fluoro-4-hydroxy-6-(4-hydroxy-1-butynyl)-3-quinolinecarboxamide], the IC50 turned out to be 5.3 µM.

Consider `COCC#Cc1cc(F)c2ncc(C(=O)NCc3ccc(Cl)cc3)c(O)c2c1` [Example 95, N-(4-Chlorobenzyl)-8-fluoro-4-hydroxy-6-(3-methoxy-1-propynyl)-3-quinolinecarboxamide], for which the concentration for half-maximal inhibition (IC50) came out at 1.9 µM. As for `CC(O)C#Cc1cc(F)c2ncc(C(=O)NCc3ccc(Cl)cc3)c(O)c2c1` (centres unmarked) [Example 96, N-(4-Chlorobenzyl)-8-fluoro-4-hydroxy-6-(3-hydroxy-1-butynyl)-3-quinolinecarboxamide], the figure is 4.5 µM; as for `O=C(NCc1ccc(Cl)cc1)c1cnc2c(F)cc(-c3cc(Br)cs3)cc2c1O` [Example 97, 6-(4-Bromo-2-thienyl)-N-(4-chlorobenzyl)-8-fluoro-4-hydroxy-3-quinolinecarboxamide], 18.6 µM. In the case of `NNC(=S)c1cc(F)c2ncc(C(=O)NCc3ccc(Cl)cc3)c(O)c2c1` [Example 98, N-(4-Chlorobenzyl)-8-fluoro-6-(hydrazinocarbothioyl)-4-hydroxy-3-quinolinecarboxamide], the IC50 worked out at 1.3 µM. With `Cc1nnc(-c2cc(F)c3ncc(C(=O)NCc4ccc(Cl)cc4)c(O)c3c2)s1` [Example 100, N-(4-Chlorobenzyl)-8-fluoro-4-hydroxy-6-(5-methyl-1,3,4-thiadiazol-2-yl)-3-quinolinecarboxamide], the IC50 worked out at 6.7 µM. Then `O=C(NCc1ccc(Cl)cc1)c1cnc2cc(C#CCO)ccc2c1O` [Example 101, N-(4-Chlorobenzyl)-4-hydroxy-7-(3-hydroxy-1-propynyl)-3-quinolinecarboxamide], with 25.8 µM; and `NC(=S)c1ccc2c(O)c(C(=O)NCc3ccc(Cl)cc3)cnc2c1` [Example 102, 7-(Aminocarbothioyl)-N-(4-chlorobenzyl)-4-hydroxy-3-quinoline-carboxamide], with 4.6 µM; and `COCCCc1cc(F)c2ncc(C(=O)NCc3ccc(Cl)cc3)c(O)c2c1` [Example 103, N-(4-Chlorobenzyl)-8-fluoro-4-hydroxy-6-(3-methoxypropyl)-3-quinolinecarboxamide], with 2.5 µM. For `O=C(NCc1ccc(Cl)cc1)c1cnc2c(F)cc(/C=C\CCO)cc2c1O` [Example 104, N-(4-Chlorobenzyl)-8-fluoro-4-hydroxy-6-[(Z)-4-hydroxy-1-butenyl]-3-quinolinecarboxamide], the IC50 was less than 0.78 µM. As for `N#CCCCCCc1cc(F)c2ncc(C(=O)NCc3ccc(Cl)cc3)c(O)c2c1` [Example 105, N-(4-Chlorobenzyl)-6-(5-cyanopentyl)-8-fluoro-4-hydroxy-3-quinolinecarboxamide], the figure is 10.4 µM; as for `O=C(NCc1ccc(Cl)cc1)c1cnc2c(F)cc(C#CCCCO)cc2c1O` [Example 107, N-(4-Chlorobenzyl)-8-fluoro-4-hydroxy-6-(5-hydroxy-1-pentynyl)-3-quinolinecarboxamide], 5.4 µM. On to `CN(CCCc1cc(F)c2ncc(C(=O)NCc3ccc(Cl)cc3)c(O)c2c1)Cc1ccccc1` [Example 108, 6-{3-[Benzyl(methyl)amino]propyl}-N-(4-chlorobenzyl)-8-fluoro-4-hydroxy-3-quinolinecarboxamide], for which the IC50 was found to be 6.5 µM. On to `COC(=O)c1cc(F)c2ncc(C(=O)NCc3ccc(Cl)cc3)c(O)c2c1` [Example 109, Methyl 3-{[(4-chlorobenzyl)amino]carbonyl}-8-fluoro-4-hydroxy-6-quinolinecarboxylate], for which the IC50 came to 11 µM. Regarding `O=C(NCc1ccc(Cl)cc1)c1cnc2c(F)cc(CCCO)cc2c1O` [Example 110, N-(4-Chlorobenzyl)-8-fluoro-4-hydroxy-6-(3-hydroxypropyl)-3-quinolinecarboxamide], the IC50 worked out at 0.28 µM. Then `O=C(NCc1ccc(Cl)cc1)c1cnc2cc(CCCO)ccc2c1O` [Example 111, N-(4-Chlorobenzyl)-4-hydroxy-7-(3-hydroxypropyl)-3-quinoline-carboxamide], with 2.6 µM. As to `CCOC(=O)/C=C/c1cc(F)c2ncc(C(=O)NCc3ccc(Cl)cc3)c(O)c2c1` [Example 112, Ethyl (E)-3-(3-{[(4-chlorobenzyl)amino]carbonyl}-8-fluoro-4-hydroxy-6-quinolinyl)-2-propenoate], the IC50 worked out at 14 µM.

`O=C(O)/C=C/c1cc(F)c2ncc(C(=O)NCc3ccc(Cl)cc3)c(O)c2c1` [Example 113, (E)-3-(3-{[(4-Chlorobenzyl)amino]carbonyl}-8-fluoro-4-hydroxy-6-quinolinyl)-2-propenoic acid]: the IC50 came to 10.4 µM. With `O=C(O)CCc1cc(F)c2ncc(C(=O)NCc3ccc(Cl)cc3)c(O)c2c1` [Example 114, 3-(3-{[(4-Chlorobenzyl)amino]carbonyl}-8-fluoro-4-hydroxy-6-quinolinyl)propanoic acid], the IC50 amounted to 2.2 µM. Regarding `O=C(O)CCC#Cc1cc(F)c2ncc(C(=O)NCc3ccc(Cl)cc3)c(O)c2c1` [Example 115, 5-(3-{[(4-Chlorobenzyl)amino]carbonyl}-8-fluoro-4-hydroxy-6-quinolinyl)-4-pentynoic acid], the IC50 came to 6.1 µM. With `O=C(NCc1ccc(Cl)cc1)c1cnc2ccc3[nH]ncc3c2c1O` [Example 116], the IC50 was found to be 16.5 µM. `COc1cc(I)cc2c(O)c(C(=O)NCc3ccc(Cl)cc3)cnc12` [Example 117, N-(4-Chlorobenzyl)-4-hydroxy-6-iodo-8-methoxy-3-quinolinecarboxamide]: the IC50 was 8.7 µM. As for `O=C(NCc1ccc(Cl)cc1)c1cnc2c(C(F)(F)F)cc(C#CCO)cc2c1O` [Example 121, N-(4-Chlorobenzyl)-4-hydroxy-6-(3-hydroxy-1-propynyl)-8-(trifluoromethyl)-3-quinolinecarboxamide], the IC50 is 15 µM. In the case of `O=C(NCc1ccc(Cl)cc1)c1cnc2c(OC(F)(F)F)cc(C#CCO)cc2c1O` [Example 122, N-(4-Chlorobenzyl)-4-hydroxy-6-(3-hydroxy-1-propynyl)-8-(trifluoromethoxy)-3-quinolinecarboxamide], the IC50 is 1.8 µM. Then `O=C(NCc1ccc(Cl)cc1)c1cnc2c(C(F)(F)F)cc(CCCO)cc2c1O` [Example 123, N-(4-Chlorobenzyl)-4-hydroxy-6-(3-hydroxypropyl)-8-(trifluoromethyl)-3-quinolinecarboxamide], with 2.2 µM. Then `CSCC#Cc1cc(F)c2ncc(C(=O)NCc3ccc(Cl)cc3)c(O)c2c1` [Example 126, N-[(4-Chlorophenyl)methyl]-8-fluoro-4-hydroxy-6-[3-(methylthio)-1-propynyl]-3-quinolinecarboxamide], with 19.7 µM; and `CCSCC#Cc1cc(F)c2ncc(C(=O)NCc3ccc(Cl)cc3)c(O)c2c1` [Example 127, N-[(4-Chlorophenyl)methyl]-6-[3-(ethylthio)-1-propynyl]-8-fluoro-4-hydroxy-3-quinolinecarboxamide], with 23.5 µM.

Take `CSC/C=C\c1cc(F)c2ncc(C(=O)NCc3ccc(Cl)cc3)c(O)c2c1` [Example 128, N-[(4-Chlorophenyl)methyl]-8-fluoro-4-hydroxy-6-[(1Z)-3-(methylthio)-1-propenyl]-3-quinolinecarboxamide]: the 50% inhibitory concentration (IC50) was found to be 0.46 µM. As for `CCSC/C=C\c1cc(F)c2ncc(C(=O)NCc3ccc(Cl)cc3)c(O)c2c1` [Example 129, N-[(4-Chlorophenyl)methyl]-6-[(1Z)-3-(ethylthio)-1-propenyl]-8-fluoro-4-hydroxy-3-quinolinecarboxamide], the figure is 1 µM. With `CSCCCc1cc(F)c2ncc(C(=O)NCc3ccc(Cl)cc3)c(O)c2c1` [Example 130, N-[(4-Chlorophenyl)methyl]-8-fluoro-4-hydroxy-6-[3-(methylthio)propyl]-3-quinolinecarboxamide], the IC50 is 1.1 µM. Turning to `O=COCC#Cc1cc(F)c2ncc(C(=O)NCc3ccc(Cl)cc3)c(O)c2c1` [Example 131, 3-(3-{[(4-Chlorobenzyl)amino]carbonyl}-8-fluoro-4-hydroxy-6-quinolinyl)-2-propynyl formate], the 50% inhibitory concentration (IC50) turned out to be 1.8 µM. Turning to `CC(O)CCc1cc(F)c2ncc(C(=O)NCc3ccc(Cl)cc3)c(O)c2c1` (centres unmarked) [Example 132, N-(4-Chlorobenzyl)-8-fluoro-4-hydroxy-6-(3-hydroxybutyl)-3-quinolinecarboxamide], the IC50 came to 0.64 µM.
